Test results reported in US20250221979A1, “NOVEL HETEROCYCLIC COMPOUND” (SHOUYAO HOLDINGS (BEIJING) CO., LTD., priority 2022, published 2025).

What was measured:
human MAT2A enzyme = human MAT2A enzyme (Homo sapiens (Human), UniProt P31153); experiment: In vitro enzymatic inhibition activity assay on MAT2A (PiColorLock phosphate detection); type: biochemical; settings: purified human MAT2A 10 nM, ATP 50 μM, L-methionine 100 μM, 6 h at 23° C.; read-out: MAT2A inhibitory activity IC50
Procedure, shortened: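 IC50 came from an 8-point, 10-fold compound series that reduced phosphate release, measured by absorbance at 630 nm. Reactions ran 6 h at 23 °C with 10 nM human MAT2A, 50 μM ATP and 100 μM L-methionine in pH 7.5 Tris buffer containing Mg2+.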

HCT116 MTAP−/− cells = experiment: Inhibition of proliferation of HCT116 MTAP-/- cells (Cell-Titer Glo, 7 days); type: cell-based; settings: Homo sapiens, HCT-116, 168 h (7 days) incubation, read-out: HCT116 MTAP−/− antiproliferative activity IC50
Method: The MTAP deficient human colorectal cancer cell line HCT116 MTAP−/− was constructed using CRJSPR Cas9 technology and cultured in DMEM medium supplemented with 10% fetal bovine serum (FBS, purchased from Gibco) and 1% penicillin/streptomycin (P/S, purchased from Thermo Fisher Scientific) at 37° C. with 5% CO2. HCT116 MTAP−/− cells were plated in 96 well plates (#3917, purchased from CORNING) at a concentration of 200 cells/195 μL/well. After 24 h, the compounds were diluted in a 3-fold gradient starting at 10 mM with 100% DMSO (for a total of 10 concentrations), then 4 μL of each concentration was added to 96 μL of serum-free DMEM medium for dilution. 5 μL of diluted compound at each concentration was added to the plated cell suspension and the compound was incubated with the cells for 168 h (7 days) in a cell culture incubator. The medium was then removed and 25 μL of Cell-Titer Glo® (G7570, purchased from Promega) reagent was added. Chemiluminescence values were read on a BMG and data were processed using GraphPad Prism software to calculate IC50 values for inhibition of cell proliferation by the compounds.

[1] = In vivo pharmacokinetic study in CD-1 mice; settings: male, mouse, single oral gavage dose of 10 mg/kg, plasma
Method: In vivo pharmacokinetic study in CD-1 mice
Twenty-four healthy adult male mice from Beijing Vital River Laboratory Animal Technology Co., Ltd. were used in the study.
CD-1 mice were administered with a single oral gavage dose of 10 mg/kg in a volume of 10 mL/kg at a concentration of 1 mg/mL.
The test article in this project is generally suspended in 0.5% hydroxypropylmethyl cellulose, 0.1% Tween 80 (W/V/V) aqueous solution at the concentration of 1 mg/mL.
Animals dosed by gavage were fasted overnight before the experiment from 16 h before dosing to 4 h after dosing. Blood was collected at 0.25, 0.5, 1, 2, 4, 6, 8, and 24 h after administration successively. The animals were lightly anesthetized with isoflurane. About 0.2 mL of whole blood was collected from the orbital venous plexus using a glass blood collection tube and placed in a sodium heparin anticoagulant tube. The sample was centrifuged at 5200 rpm for 5 min at 4° C. The plasma was transferred to a centrifuge tube and stored at −80° C. until analysis.
Analysis of plasma samples Test compounds and internal standards (warfarin or propranolol) were extracted from mouse plasma using an acetonitrile protein precipitation method and the extracts were analyzed by LC/MS/MS. The measured plasma concentration-time data of individual animals were analyzed using the non-compartmental model of WinNonlin (version 5.2.1, Pharsight) software to obtain the corresponding pharmacokinetic parameters: maximum (peak) plasma drug concentration Cmax; Time to peak Tmax; Half-life T1/2 and area under the plasma concentration-time curve extrapolated to infinite time AUC0-inf.

Sequence of human MAT2A enzyme (P31153 whole entry): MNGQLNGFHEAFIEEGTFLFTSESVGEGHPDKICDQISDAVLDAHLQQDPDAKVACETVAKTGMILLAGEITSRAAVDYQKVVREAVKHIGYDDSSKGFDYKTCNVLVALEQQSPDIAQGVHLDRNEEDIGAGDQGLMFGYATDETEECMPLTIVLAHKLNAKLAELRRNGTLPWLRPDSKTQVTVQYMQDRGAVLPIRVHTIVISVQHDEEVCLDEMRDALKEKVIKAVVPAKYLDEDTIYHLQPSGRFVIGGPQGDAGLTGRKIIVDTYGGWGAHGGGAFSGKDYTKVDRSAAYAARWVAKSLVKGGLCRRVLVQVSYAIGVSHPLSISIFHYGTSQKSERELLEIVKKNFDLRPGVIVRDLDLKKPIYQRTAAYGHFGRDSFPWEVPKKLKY

SMILES	IC50 (human MAT2A enzyme)	IC50 (HCT116 MTAP−/− cells)	AUC [1]	Cmax [1]	Tmax [1]	half-life [1]
COC(=O)c1c(N)c2ccc(Br)nc2n(-c2cccc3cnccc23)c1=O [Example 221, methyl 4-amino-7-bromo-1-(isoquinolin-5-yl)-2-oxo-1,2-dihydro-1,8-naphthyridine-3-carboxylate]	2.71 nM	41.4 nM	–	–	–	–
COC(=O)c1c(N)c2ccc(C(F)(F)F)nc2n(-c2cccc3cnccc23)c1=O [Example 174, methyl 4-amino-1-(isoquinolin-5-yl)-2-oxo-7-(trifluoromethyl)-1,2-dihydro-1,8-naphthyridine-3-carboxylate]	5.12 nM	79 nM	24500 ng·h/mL	9540 ng/mL	0.5 h	185 min
COC(=O)c1c(N)c2ccc(C(F)(F)F)nc2n(-c2ccc(C)nc2)c1=O [Example 207, methyl 4-amino-1-(6-methylpyridin-3-yl)-2-oxo-7-(trifluoromethyl)-1,2-dihydro-1,8-naphthyridine-3-carboxylate]	2.17 nM	53.2 nM	–	–	–	–
COC(=O)c1c(N)c2ccc(Br)cc2n(-c2ccc([C@@H](C)O)cc2)c1=O [Example 340, methyl 4-amino-7-bromo-1-(4-(1-(R)-hydroxyethyl)phenyl)-2-oxo-1,2-dihydroquinoline-3-carboxylate]	1.44 nM	2.1 nM	–	–	–	–
COC(=O)c1c(N)c2ccc(Br)cc2n(-c2ccc(Cl)c3cnccc23)c1=O [Example 176, methyl amino-1-(8-chloroisoquinolin-5-yl)-7-bromo-2-oxo-1,2-dihydroquinoline-3-carboxylate]	2.74 nM	39.2 nM	–	–	–	–
COC(=O)c1c(N)c2ccc(C(F)(F)F)nc2n(-c2ccc(Cl)cc2)c1=O [Example 173, methyl 4-amino-1-(4-chlorophenyl)-2-oxo-7-(trifluoromethyl)-1,2-dihydro-1,8-naphthyridine-3-carboxylate]	1.18 nM	30.9 nM	–	–	–	–
COC(=O)c1c(N)c2ccc(C(F)(F)F)nc2n(-c2ccc(Cl)nc2)c1=O [Example 203, methyl 4-amino-1-(6-chloropyridin-3-yl)-2-oxo-7-(trifluoromethyl)-1,2-dihydro-1,8-naphthyridine-3-carboxylate]	1.26 nM	25 nM	–	–	–	–
COC(=O)c1c(N)c2ccc(I)cc2n(-c2ccc(N)cc2)c1=O [Example 252, methyl 4-amino-1-(4-aminophenyl)-7-iodo-2-oxo-1,2-dihydro quinoline-3-carboxylate]	0.14 nM	14.2 nM	–	–	–	–
COC(=O)c1c(N)c2ccc(Br)cc2n(-c2ccc(N)cc2)c1=O [Example 147, methyl 4-amino-1-(4-aminophenyl)-7-bromo-2-oxo-1,2-dihydroquinoline-3-carboxylate]	0.78 nM	81.5 nM	24100 ng·h/mL	2320 ng/mL	1.67 h	506 min
COC(=O)c1c(N)c2ccc(Br)nc2n(-c2ccc(Cl)cc2)c1=O [Example 265, methyl 4-amino-7-bromo-1-(4-chlorophenyl)-2-oxo-1,2-dihydro-1,8-naphthyridine-3-carboxylate]	0.94 nM	47.3 nM	–	–	–	–
COC(=O)c1c(N)c2ccc(Br)cc2n(-c2ccc3c(c2)OCO3)c1=O [Example 92, methyl 4-amino-1-(benzo[d](1,3)dioxol-5-yl)-7-bromo-2-oxo-1,2-dihydroquinoline-3-carboxylate]	0.83 nM	87.2 nM	–	–	–	–
COC(=O)c1c(N)c2ccc(C(F)(F)F)cc2n(-c2ccc(C(C)O)cc2)c1=O (stereo not shown) [Example 122, methyl 4-amino-1-(4-(1-hydroxyethyl)phenyl)-2-oxo-7-(trifluoromethyl)-1,2-dihydroquinoline-3-carboxylate]	2.17 nM	50 nM	–	–	–	–
COC(=O)c1c(N)c2ccc(C(F)(F)F)cc2n(-c2ccc(CO)cc2)c1=O [Example 86, methyl 4-amino-2-oxo-1-(4-(hydroxymethyl)phenyl)-7-(trifluoromethyl)-1,2-dihydroquinoline-3-carboxylate]	2.37 nM	85.2 nM	–	–	–	–
COC(=O)c1c(N)c2ccc(Br)cc2n(-c2ccc(C(C)O)cc2)c1=O (stereo not shown) [Example 200, methyl 4-amino-7-bromo-1-(4-(1-hydroxyethyl)phenyl)-2-oxo-1,2-dihydro quinoline-3-carboxylate]	1.63 nM	23.4 nM	–	–	–	–
COC(=O)c1c(N)c2ccc(Br)cc2n(-c2cccc3cnccc23)c1=O [Example 154, methyl 4-amino-7-bromo-1-(isoquinolin-5-yl)-2-oxo-1,2-dihydroquinoline-3-carboxylate]	3 nM	35.1 nM	–	–	–	–
COC(=O)c1c(N)c2ccc(Br)nc2n(-c2cccc3c(Cl)nccc23)c1=O [Example 240, methyl 4-amino-1-(1-chloroisoquinolin-5-yl)-7-bromo-2-oxo-1,2-dihydro-1,8-naphthyridine-3-carboxylate]	1.72 nM	61.2 nM	–	–	–	–
COC(=O)c1c(N)c2ccc(OC(F)(F)F)cc2n(-c2ccc([C@@H](C)O)cc2)c1=O [Example 378, methyl 4-amino-1-(4-((1R)-1-hydroxyethyl)phenyl)-2-oxo-7-(trifluoromethoxy)-1,2-dihydroquinoline-3-carboxylate]	1.2 nM	1.5 nM	–	–	–	–
COC(=O)c1c(N)c2ccc(I)cc2n(-c2cccc3cnccc23)c1=O [Example 199, methyl 4-amino-7-iodo-1-(isoquinolin-5-yl)-2-oxo-1,2-dihydroquinoline-3-carboxylate]	3.57 nM	48.5 nM	24600 ng·h/mL	4270 ng/mL	2.5 h	179 min
COC(=O)c1c(N)c2ccc(Br)nc2n(-c2ccc(C(C)O)cc2)c1=O (stereo not shown) [Example 266, methyl 4-amino-1-(4-(1-hydroxyethyl)phenyl)-7-bromo-2-oxo-1,2-dihydro-1,8-naphthyridine-3-carboxylate]	2.37 nM	32.7 nM	–	–	–	–
COC(=O)c1c(N)c2ccc(C(F)(F)F)cc2n(-c2ccc(C(C)O)nc2)c1=O (stereo not shown) [Example 175, methyl 4-amino-1-(6-(1-hydroxyethyl)pyridin-3-yl)-2-oxo-7-(trifluoromethyl)-1,2-dihydroquinoline-3-carboxylate]	6.25 nM	53.5 nM	–	–	–	–
